Where no end group is shown, it is not given here.
What was measured:
[1] = test system: panel of 32 kinases (AKT2, AKT3, PKA, PKC, PI3K, SGK, PAK2, PAK3, SAPK2/p38, Abl, CaMKII, CDK1/cyclinB, CDK5/p35, CK1, CK2, CSK, GSK3, JNK1, MAPK1, p70S6K …); assay: In vitro kinase selectivity panel of 32 kinases; type: biochemical; conditions: at IC50 for AKT1 (0.1 μM)
Experimental: (§1) As a specific substrate, the phosphorylation level of GSK-3[…] at Ser-9 was also evaluated. […] The decrease was specific to the AKT phosphorylation site on GSK-3[…] at Ser-9, since a change in the phosphorylation level of GSK-3[…] at Tyr-216 or GSK-3[…] at Tyr-279 was not observed. Moreover, the in vivo reduction of the phosphorylation of AKT substrates was more obvious at the injection site, since a significant change in the phosphorylation of AKT substrates in the frontal cortex or cerebellum between the two hemispheres was not observed. […] To test the specificity/selectivity of ZaTa as the inhibitor of AKT1 versus the other major kinases, a series of in vitro kinase assays was performed at IC50 for AKT1 and at ten times higher concentrations. A panel of the following 32 kinases was first tested in vitro using the active form of each kinase and a specific substrate: AKT2, AKT3, PKA, PKC[…], PKC, PI3K[…], PI3K[…], PI3K, SGK, PAK2, PAK3, SAPK2/p38, Abl, CaMKII, CDK1/cyclinB, CDK5/p35, CK1, CK2, CSK, GSK3[…], GSK3[…], JNK1[…]1, MAPK1, p70S6K, PDGFR[…], PDGFR[…], PDK1, PKG1[…], TrkB, JAK2, JAK3, and Syk. […] However, at ten times higher concentration, ZaTa inhibited AKT2 (63%), PI3K[…] (72%), p70S6K (64%), SGK (73%), PAK3 (83%), JAK3 (79%), TrkB (84%), and Abl (42%). […]

[2] = biological target: T1, p70S6K (Homo sapiens, UniProt P23443); assay: In vitro kinase assay p70S6K; type: biochemical; conditions: ten times higher concentration than 0.1 μM
T1 construct: endogenous in cells
Experimental: as §1

[3] = test system: N2a cells; assay: MTT cell proliferation assay; type: cell-based
Experimental: In histogram series 2, treatments were removed after 24 hours and cells were incubated for another 24 hours without treatment. […] Mitochondrial activity (reflecting cellular growth and viability) in the presence of ZaTa and ZaTa variants (ZaTa T10D, ZaTa T8D, ZaTa T14R, and ZaTa Y17T) was evaluated by measuring the optical density (“OD”) at 490 nm on a plate reader. ZaTa T10D refers to a ZaTa polypeptide variant in which the Threonine (T) at position 10 of SEQ ID NO: 60 is substituted by an Aspartic Acid (D). ZaTa T8D refers to a ZaTa polypeptide variant in which the Threonine (T) at position 8 of SEQ ID NO: 60 is substituted by an Aspartic Acid (D). ZaTa T14R refers to a ZaTa polypeptide variant in which the Threonine (T) at position 14 of SEQ ID NO: 60 is substituted by an Arginine (R). ZaTa Y17T refers to a ZaTa polypeptide variant in which the Tyrosine (Y) at position 17 of SEQ ID NO: 60 is substituted by an Threonine (T).
AKT affects a network that positively regulates G1/S cell cycle progression through several mechanisms that involve the expression and subcellular localization of the CDK inhibitor p27^Kip1 (Blain and Massague (2002) Nat. Med. 8:1076-1078; Liang, et al. (2002) supra; Shin, et al. (2002) supra; Viglietto, et al. (2002) supra). Based on these studies, the effect of ZaTa peptide on cell proliferation was assessed. […] Capturing live images of cultured N2a cells in the presence of different concentrations of the ZaTa peptide confirmed an obvious reduction in the number of dividing cells.
Based on the importance of the C-terminal arm of ZaTa for its inhibitory action on AKT, it was determined whether the free hydroxyl groups on residues Thr-8, Thr-10 (equivalent to Thr-197 in full-length PKAc), Thr-14 and Tyr-17 were important for the biological activity of this peptide. Mutants of ZaTa peptide were synthesized by replacing Thr-8 or Thr-10 residues with Asp (ZaTa^T8D and ZaTa^T10D, respectively) as an amino acid with a negatively charged side chain. Mutants of ZaTa with the hydrophilic positively charged amino acid Arg at either position Thr-14 or Tyr-17 (ZaTa^T14R and ZaTa^Y17R, respectively) were also synthesized. […] The inhibitory effect of ZaTa peptide on cell proliferation was reversible, to a large extent, after the removal of ZaTa treatment (FIG. 3, histogram series 2).
Cells (5×10^3) were incubated in 96-well plates in the presence of different concentrations of the ZaTa peptide, control peptide or DMSO as vehicle. Media was removed at different time intervals and replaced with media containing MTT (5 mg/mL), and incubated for one hour at 37° C. […] The activity of the mitochondria, reflecting cellular growth and viability, was evaluated by measuring the optical density at 490 nm on a plate reader.

[4] = test system: axonal filament bundles in striatum; assay: In vivo axon morphology, neurofilament-H staining of striatum after stereotactic injection; design: species or system mouse; conditions: 18 hours after surgery, versus DMSO hemisphere
Experimental: To determine the phenotypic effect of disrupting the AKT-PKAc complex in an in vivo setting, ZaTa peptide was stereotactically injected into the brain of a mouse and the animal was perfused 18 hours after recovery from surgery. Because AKT is known to have a role in axonal morphology (Markus, et al. (2002) Neuron 35:65-76), coronal sections of striatum were stained with neurofilament-H(NF—H), as an axonal-specific marker. […] PKA is also known to have a role in regeneration of growth cones on axons (Chierzi, et al. (2005) Eur. J. Neurosci. 21:2051-2062). Therefore, given the data provided herein, it is believed that a proper interaction between AKT and PKAc is involved in maintaining normal neuronal morphology.

T1 sequence (P23443 whole entry): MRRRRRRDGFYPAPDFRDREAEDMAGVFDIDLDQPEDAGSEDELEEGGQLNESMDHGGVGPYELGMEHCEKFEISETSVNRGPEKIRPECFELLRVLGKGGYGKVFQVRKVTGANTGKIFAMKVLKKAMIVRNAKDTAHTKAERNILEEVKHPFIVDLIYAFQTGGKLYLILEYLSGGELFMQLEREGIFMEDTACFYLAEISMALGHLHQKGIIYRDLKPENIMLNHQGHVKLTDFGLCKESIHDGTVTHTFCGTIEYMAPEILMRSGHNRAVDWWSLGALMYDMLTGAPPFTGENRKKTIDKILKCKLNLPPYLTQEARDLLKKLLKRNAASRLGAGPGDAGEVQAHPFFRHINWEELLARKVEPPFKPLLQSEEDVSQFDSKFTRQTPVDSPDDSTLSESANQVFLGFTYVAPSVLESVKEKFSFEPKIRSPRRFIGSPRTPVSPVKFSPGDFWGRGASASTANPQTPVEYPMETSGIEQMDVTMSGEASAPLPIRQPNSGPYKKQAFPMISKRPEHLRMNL

AKRVKGRTWTLCGTPEY [ZaTa] was tested, and the “inhibition of panel kinases” value [1] was “no significant inhibition”, the “inhibition of p70S6K” value [2] was 64% and the “dose causing significant decrease in the number of live cells (as low as)” value [3] was 2 µM. For the same sequence, the “number of live cells 24 hours after removal of treatment versus DMSO vehicle” value ([3]; 10 μM, 24 hours treatment then 24 hours without) was “no significant differences”, the “number of live cells, MTT” value ([3]; different concentrations) was “dose-dependent decrease in the number of live cells” and the “staining pattern of axonal filament bundles (NF-H) in striatum” value [4] was “Changes in the staining pattern of axonal filament bundles”.

Source: patent US8541670B2, “Compositions and methods for inhibiting tumor cell growth” (priority 2007, dated 2013)
